Measured values reported in PubChem BioAssay AID248 (DTP/NCI, 2004).
Inconclusive results and toxic doses are left out. Rule as the data show it: active = T/C of 150% or more; inactive = T/C below 125%.

Test system: L1210 leukemia ip in BDF1 mice, survival T/C
Assay: NCI In Vivo Anticancer Drug Screen. Data for tumor model L1210 Leukemia (intraperitoneal) in B6D2F1 (BDF1) mice
Settings: endpoint: mean survival time, higher = longer survival
Outline: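 Transplantable tumor model; survival measured in treated vs vehicle control mice. Value = treated/control.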

[1] = dose: 100.0 mg/kg/injection, schedule: Q01DX009 (ip), vehicle: saline
[2] = dose: 200.0 mg/kg/injection, schedule: Q01DX009 (ip), vehicle: saline
[3] = dose: 100.0 mg/kg/injection, schedule: Q01DX009 (ip), vehicle: saline with Tween-80
[4] = dose: 200.0 mg/kg/injection, schedule: Q01DX009 (ip), vehicle: saline with Tween-80
[5] = dose: 400.0 mg/kg/injection, schedule: Q01DX009 (ip), vehicle: saline with Tween-80
[6] = dose: 100.0 mg/kg/injection, schedule: Q01DX001 (ip), vehicle: saline
[7] = dose: 200.0 mg/kg/injection, schedule: Q01DX001 (ip), vehicle: saline
[8] = dose: 400.0 mg/kg/injection, schedule: Q01DX001 (ip), vehicle: saline
[9] = dose: 100.0 mg/kg/injection, schedule: Q04DX003 (ip), vehicle: saline with Tween-80
[10] = dose: 200.0 mg/kg/injection, schedule: Q04DX003 (ip), vehicle: saline with Tween-80
[11] = dose: 400.0 mg/kg/injection, schedule: Q04DX003 (ip), vehicle: saline with Tween-80

Measured: T/C

CCOC(=O)c1c(N)ssc1=S
inactive: [1] 100 % of control | dose: 100.0 mg/kg/injection, schedule: Q04DX003 (ip), vehicle: saline 102 % of control | [2] 105 % of control | dose: 200.0 mg/kg/injection, schedule: Q04DX003 (ip), vehicle: saline 105 % of control | dose: 400.0 mg/kg/injection, schedule: Q01DX009 (ip), vehicle: saline 105 % of control | dose: 400.0 mg/kg/injection, schedule: Q04DX003 (ip), vehicle: saline 107 % of control

Oc1c(Cl)cc(Cl)cc1C=NCC1CCC(CN=Cc2cc(Cl)cc(Cl)c2O)CC1 (stereo not drawn)
inactive: [3] 92 % of control | [4] 92 % of control | [5] 94 % of control

CCOC(=O)N(c1ccccc1)c1ccccc1
inactive: dose: 100.0 mg/kg/injection, schedule: Q04DX002 (ip), vehicle: Klucel (hydroxypropylcellulose) (HPC) 106 % of control | dose: 200.0 mg/kg/injection, schedule: Q04DX002 (ip), vehicle: Klucel (hydroxypropylcellulose) (HPC) 106 % of control | dose: 400.0 mg/kg/injection, schedule: Q04DX002 (ip), vehicle: Klucel (hydroxypropylcellulose) (HPC) 98 % of control

CC(C)C[As](C)(=O)O
inactive: dose: 66.0 mg/kg/injection, schedule: Q01DX009 (ip), vehicle: saline 107 % of control | [1] 115 % of control | dose: 150.0 mg/kg/injection, schedule: Q01DX009 (ip), vehicle: saline 94 % of control

O=C(CSc1ccc([N+](=O)[O-])cc1)c1ccccc1
inactive: dose: 50.0 mg/kg/injection, schedule: Q01DX001 (ip), vehicle: saline 104 % of control | [6] 98 % of control | [7] 91 % of control | [8] 96 % of control

CCCCOCc1cc(CN2CCN(C)CC2)c(O)c2ncccc12
inactive: dose: 25.0 mg/kg/injection, schedule: Q04DX002 (ip), vehicle: saline 89 % of control | dose: 50.0 mg/kg/injection, schedule: Q04DX002 (ip), vehicle: saline 95 % of control | dose: 100.0 mg/kg/injection, schedule: Q04DX002 (ip), vehicle: saline 89 % of control

COc1cc(OC)c(OC)cc1/C=C/c1ccc2ccccc2n1
inactive: [3] 91 % of control | [4] 100 % of control | [5] 98 % of control

c1ccc([P+](c2ccccc2)(c2ccccc2)c2ccc(-c3ccc([P+](c4ccccc4)(c4ccccc4)c4ccccc4)cc3)cc2)cc1
inactive: dose: 1.25 mg/kg/injection, schedule: Q01DX009 (ip), vehicle: Klucel (hydroxypropylcellulose) (HPC) 102 % of control | dose: 3.5 mg/kg/injection, schedule: Q01DX009 (ip), vehicle: Klucel (hydroxypropylcellulose) (HPC) 105 % of control

CCOC(=O)c1c[nH]c2cc([N+](=O)[O-])ccc2c1=O
inactive: dose: 25.0 mg/kg/injection, schedule: Q04DX003 (ip), vehicle: saline with Tween-80 91 % of control | dose: 50.0 mg/kg/injection, schedule: Q04DX003 (ip), vehicle: saline with Tween-80 86 % of control

COc1ccccc1C1CC(C(C)(C)C)CCC1OS(=O)(=O)c1ccc(C)cc1 (stereo not drawn)
inactive: dose: 50.0 mg/kg/injection, schedule: Q01DX009 (ip), vehicle: saline 90 % of control | [1] 92 % of control | dose: 100.0 mg/kg/injection, schedule: Q04DX003 (ip), vehicle: acetone 102 % of control | [2] 95 % of control | dose: 200.0 mg/kg/injection, schedule: Q04DX003 (ip), vehicle: acetone 96 % of control | dose: 400.0 mg/kg/injection, schedule: Q04DX003 (ip), vehicle: acetone 94 % of control

c1cc2c(c(C3=NCCO3)c1)CCCC2 (tested in a mixture with another compound)
inactive: [3] 96 % of control | [4] 88 % of control | [5] 91 % of control

C/C(=C\c1c[nH]c2ccccc12)[N+](=O)[O-]
inactive: [3] 90 % of control | [9] 97 % of control | [4] 100 % of control | [10] 97 % of control | [5] 100 % of control | [11] 90 % of control

Cc1cc(C(=O)CCl)c(CN2C(=O)c3ccccc3C2=O)c(=O)n1C
inactive: [3] 98 % of control | [9] 108 % of control | [4] 100 % of control | [10] 105 % of control | [5] 92 % of control | [11] 110 % of control

O=C(O)C1C(C(=O)O)C2(c3ccccc3)c3ccccc3C12 (stereo not drawn)
inactive: dose: 9.38 mg/kg/injection, schedule: Q01DX001 (ip), vehicle: other 92 % of control | dose: 18.75 mg/kg/injection, schedule: Q01DX001 (ip), vehicle: other 92 % of control | dose: 37.5 mg/kg/injection, schedule: Q01DX001 (ip), vehicle: other 102 % of control

C1CCC2(CC1)NN2
inactive: dose: 50.0 mg/kg/injection, schedule: Q01DX001 (ip), vehicle: water 101 % of control | dose: 100.0 mg/kg/injection, schedule: Q01DX001 (ip), vehicle: water 104 % of control | dose: 200.0 mg/kg/injection, schedule: Q01DX001 (ip), vehicle: water 98 % of control | dose: 400.0 mg/kg/injection, schedule: Q01DX001 (ip), vehicle: water 103 % of control

CCOC(=O)c1ccccc1NC(c1ccccc1)c1ccc2cccnc2c1O (stereo not drawn)
inactive: [6] 101 % of control | [7] 97 % of control | [8] 91 % of control

O=C(Nc1cccc(Cl)c1)OCCN(CCOC(=O)Nc1cccc(Cl)c1)Cc1ccccc1
inactive: [6] 106 % of control | [7] 95 % of control | [8] 97 % of control

CC1CC(C)NC(=O)N1 (stereo not drawn)
inactive: dose: 50.0 mg/kg/injection, schedule: Q04DX002 (ip), vehicle: saline with Tween-80 98 % of control | dose: 100.0 mg/kg/injection, schedule: Q04DX002 (ip), vehicle: saline with Tween-80 94 % of control | dose: 200.0 mg/kg/injection, schedule: Q04DX002 (ip), vehicle: saline with Tween-80 91 % of control | dose: 400.0 mg/kg/injection, schedule: Q04DX002 (ip), vehicle: saline with Tween-80 98 % of control

O=C1c2ccccc2C(=O)N1CNc1ccc(Oc2ccc(Cl)cc2)cc1
inactive: [3] 93 % of control | [4] 93 % of control

C[N+](C)(C)CCOc1ccc(Cl)cc1
inactive: dose: 12.0 mg/kg/injection, schedule: Q04DX003 (ip), vehicle: Klucel (hydroxypropylcellulose) (HPC) 91 % of control | dose: 25.0 mg/kg/injection, schedule: Q01DX009 (ip), vehicle: Klucel (hydroxypropylcellulose) (HPC) 103 % of control | dose: 25.0 mg/kg/injection, schedule: Q04DX003 (ip), vehicle: Klucel (hydroxypropylcellulose) (HPC) 93 % of control | dose: 50.0 mg/kg/injection, schedule: Q01DX009 (ip), vehicle: Klucel (hydroxypropylcellulose) (HPC) 106 % of control | dose: 50.0 mg/kg/injection, schedule: Q04DX003 (ip), vehicle: Klucel (hydroxypropylcellulose) (HPC) 96 % of control | dose: 100.0 mg/kg/injection, schedule: Q01DX009 (ip), vehicle: Klucel (hydroxypropylcellulose) (HPC) 98 % of control

O=C(N/N=C/c1ccc(O)cc1)C(c1ccccc1)N1CCCCC1 (stereo not drawn)
inactive: dose: 100.0 mg/kg/injection, schedule: Q01DX001 (ip), vehicle: other 102 % of control | dose: 200.0 mg/kg/injection, schedule: Q01DX001 (ip), vehicle: other 93 % of control | dose: 400.0 mg/kg/injection, schedule: Q01DX001 (ip), vehicle: other 96 % of control
